Assays:
MsDisA [1] = target: T1, MsDisA (Mycolicibacterium smegmatis, UniProt A0R564); test: biochemical
MsDisA [2] = target: T1, MsDisA; conditions: substrate inhibition by ATP; pH 7.5; 37 °C; 5 mM MgCl2
MsPDE = MsPDE (Mycolicibacterium smegmatis, UniProt A0QVM9); test: HPLC AMP formation, substrate inhibition model; type: biochemical; conditions: substrate inhibition by c-di-AMP; pH 7.5; 5 mM MgCl2
MsPDE, sequence (A0QVM9 1-340): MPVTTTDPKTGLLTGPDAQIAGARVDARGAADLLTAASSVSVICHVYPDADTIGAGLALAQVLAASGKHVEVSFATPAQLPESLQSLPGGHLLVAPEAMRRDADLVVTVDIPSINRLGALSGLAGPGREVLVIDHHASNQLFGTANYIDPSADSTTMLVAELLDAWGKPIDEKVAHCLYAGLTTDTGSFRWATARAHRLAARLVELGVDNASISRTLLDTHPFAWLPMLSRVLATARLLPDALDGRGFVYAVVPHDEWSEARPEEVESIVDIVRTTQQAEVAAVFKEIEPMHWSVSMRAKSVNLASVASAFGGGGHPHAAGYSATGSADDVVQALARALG

T1 sequence (A0R564 whole entry): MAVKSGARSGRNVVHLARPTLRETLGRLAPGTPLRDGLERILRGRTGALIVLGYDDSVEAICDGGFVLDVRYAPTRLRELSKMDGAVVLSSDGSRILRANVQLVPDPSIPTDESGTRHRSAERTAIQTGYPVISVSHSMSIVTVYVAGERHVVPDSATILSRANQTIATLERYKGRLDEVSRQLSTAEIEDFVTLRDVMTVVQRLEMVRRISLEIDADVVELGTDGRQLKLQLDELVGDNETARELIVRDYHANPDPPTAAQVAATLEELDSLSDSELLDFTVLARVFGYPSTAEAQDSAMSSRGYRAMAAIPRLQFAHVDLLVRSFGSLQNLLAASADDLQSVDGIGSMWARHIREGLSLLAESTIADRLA

Row | Structure (SMILES) | Kd (MsDisA [1]) [µM] | Ki (MsDisA [2]) [µM] | Ki (MsPDE) [µM]
1 | Nc1ncnc2c1ncn2[C@@H]1O[C@H](COP(=O)(O)OP(=O)(O)OP(=O)(O)O)[C@@H](O)[C@H]1O [ATP] | 2.4 | 1430 | 
2 | Nc1ncnc2c1ncn2[C@@H]1O[C@@H]2COP(=O)(O)O[C@H]3[C@@H](O)[C@H](n4cnc5c(N)ncnc54)O[C@@H]3COP(=O)(O)O[C@H]2[C@H]1O [c-di-AMP] |  |  | 1120

Reference: doi:10.1101/2021.11.20.466133v3 (biorxiv, 2022)
